Assay [1] in a line: Phase II clinical trial, tumor responses. It is filed as in vivo, human patients. Particulars: 150 mg/m^2 biweekly. An excerpt: To date, the first six patients have received at least one cycle of treatments. […] Specifically, three patients enrolled in the study had measurable disease.
A further assay deals with LX-1 lung tumor. Put plainly: Antitumor activity against LX-1 lung tumor in nude mice (Example 10, combinations). It is filed as in vivo, human tumor xenograft in nude mice. Particulars: for Avg Tumor Diameter: 4 treatments, mg/kg: EDX 40, PDX 60, TXL 25, TXT 20, PDX+TXL 45+18, PDX+TXT 45+15, 'then' = taxane 24 h later; for Change in Tumor Volume: from starting point of 83 mg, 3 to 4 days after treatment end. (Xenograft models place foreign cells or tissue in a host animal.)

Another assay relates to human LX-1 lung cancer. The assay can be described thus: Antitumor activity against xenografts of human LX-1 lung cancer in nude mice (Example 3). It is filed as in vivo, human tumor xenograft in nude mice. Particulars: Example 2 protocol, tumor free three weeks after therapy.
Assay [2] deals with human MX-1 mammary carcinoma. The assay can be described thus: Antitumor activity against xenografts of human MX-1 mammary carcinoma in nude mice. Particulars: same doses, no measurable tumor at day 14, mice/mice tested.
In another assay the test system is TSU-PR1 (human prostate). The assay can be described thus: Antitumor activity in TSU-PR1 tumor model in mice (Example 11).
The test system of the next assay is LX-1 (human lung). Put plainly: Antitumor activity in LX-1 tumor model in mice (Example 11).
The next assay relates to PC-3 (human prostate). Put plainly: Antitumor activity in PC-3 tumor model in mice (Example 11). Particulars: PC3, dose PDX 60, TXL 25, PDX + TXL 45 + 16.
[3] abbreviates: dose PDX 60, TXL 25, PDX + TXL 45 + 16.
Setting [4] is: dose PDX 60, TXL 25, PDX + TXL 45 + 16, initial volume 14-19 mm^3.

The record followed here is patent US6323205A (priority 2000, dated 2001).

Source text for LX-1 (human lung): (§1) The tumor volume at the time of initial treatment was 14-19 mm^3.
Source text for PC-3 (human prostate): as §1
Source text for TSU-PR1 (human prostate): as §1

On to `C#CCC(Cc1cnc2nc(N)nc(N)c2n1)c1ccc(C(=O)N[C@@H](CCC(=O)O)C(=O)O)cc1` (stereo partly drawn) [10-propargyl-10-deazaaminopterin], for which the “response of fourth patient (evaluable disease)” value in assay [1] is “objective improvement in disease parameters”. Moreover, the “patients with major responses” value in assay [1] (of first six patients) is on record as “four have demonstrated major responses”. Moreover, the “reduction in tumor diameter (lung scans)” value in assay [1] (three patients with measurable disease) was “at least 50%”.

Consider `CCC(Cc1cnc2nc(N)nc(N)c2n1)c1ccc(C(=O)N[C@@H](CCC(=O)O)C(=O)O)cc1` (stereo partly drawn) [EDX, edatrexate], for which, in the assay on LX-1 lung tumor, the “Avg Tumor Diameter” value is 6.6 ± 2 mm. The “Change in Tumor Volume” value in the assay with LX-1 lung tumor (same doses) was “+102 mg”. In addition, the “Tumor Free Mice at 3-4 days” value in the assay on LX-1 lung tumor (same doses, mice/mice treated) is 0/10.

`CN(Cc1cnc2nc(N)nc(N)c2n1)c1ccc(C(=O)N[C@@H](CCC(=O)O)C(=O)O)cc1` [MTX, methotrexate, reference compound]: the Cures with human LX-1 lung cancer was 0/10. Further, the “Complete Regressions” value in assay [2] is “no regressions”.

Regarding `CC(=O)O[C@H]1C(=O)[C@@]2(C)[C@H]([C@H](OC(=O)c3ccccc3)[C@]3(O)C[C@H](OC(=O)[C@H](O)[C@@H](NC(=O)c4ccccc4)c4ccccc4)C(C)=C1C3(C)C)[C@]1(OC(C)=O)CO[C@@H]1C[C@@H]2O` [TXL, paclitaxel, reference compound], the “Avg Tumor Diameter” value was 3.2 ± 0.3 mm in the assay on TSU-PR1 (human prostate) (setting [3]), 6.2 ± 2 mm with LX-1 lung tumor, 11.6 ± 1 mm in the assay with LX-1 (human lung) (setting [3]) and 4.3 ± 0.3 mm in the assay with PC-3 (human prostate). Moreover, the “Tumor Free Mice” value in the assay on TSU-PR1 (human prostate) (setting [3]), with LX-1 (human lung) (setting [3]) and in the assay on PC-3 (human prostate) was 0/6 throughout. Further, the “Change in Tumor Volume” value in the assay on TSU-PR1 (human prostate) (setting [4]) was 0; with LX-1 lung tumor (same doses), “+42 mg”; in the assay with LX-1 (human lung) (setting [4]), “+803”; in the assay on PC-3 (human prostate) (initial volume 14-19 mm^3), “+26”. The “Tumor Free Mice at 3-4 days” value in the assay on LX-1 lung tumor (same doses, mice/mice treated) was 0/10.

With `CC(=O)O[C@@]12CO[C@@H]1C[C@H](O)[C@@]1(C)C(=O)[C@H](O)C3=C(C)[C@@H](OC(=O)[C@H](O)[C@@H](NC(=O)OC(C)(C)C)c4ccccc4)C[C@@](O)([C@@H](OC(=O)c4ccccc4)[C@H]21)C3(C)C` [TXT, docetaxel], in the assay with LX-1 lung tumor, the “Avg Tumor Diameter” value stood at 6.0 ± 2 mm. The “Change in Tumor Volume” value in the assay on LX-1 lung tumor (same doses) is listed as “+34 mg”. Moreover, in the assay with LX-1 lung tumor (same doses, mice/mice treated), the “Tumor Free Mice at 3-4 days” value was 1/10 and the “Tumor Free Mice at 28 days” value is 0/10.
